pIC50: −log10 of the molar value.
Test system: KRAS-mutant PDC multicell tumor spheroid viability
Experiment: Anticancer human tumor 521955-158-R2-J5-PDC patient-derived pancreatic carcinoma cell line growth inhibition [KRAS2]
Details: for pIC50: curve of first compound; for viability, T/C: stronger effect = lower value
In short: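 KRAS-mutant tumor cells were grown as spheroids with HUVEC endothelial cells and human MSCs as stroma. Targeted agents were tested alone and with KRAS pathway inhibitors. Doses started at or near clinical Cmax, or 10 microM, descending half-log.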

[1] = second compound 0.1 µM, first compound 0.0316 µM
[2] = second compound 0.1 µM, first compound 0.1 µM
[3] = second compound 0.1 µM, first compound 0.316 µM
[4] = second compound 0.1 µM, first compound 1 µM
[5] = second compound 0.1 µM, first compound 3.16 µM
[6] = second compound 0.1 µM, first compound 10 µM
[7] = second compound 0.316 µM, first compound 0.0316 µM
[8] = second compound 0.316 µM, first compound 0.1 µM
[9] = second compound 0.316 µM, first compound 0.316 µM
[10] = second compound 0.316 µM, first compound 1 µM
[11] = second compound 0.316 µM, first compound 3.16 µM
[12] = second compound 0.316 µM, first compound 10 µM
[13] = second compound 1 µM, first compound 0.0316 µM
[14] = second compound 1 µM, first compound 0.1 µM
[15] = second compound 1 µM, first compound 0.316 µM
[16] = second compound 1 µM, first compound 1 µM
[17] = second compound 1 µM, first compound 3.16 µM
[18] = second compound 1 µM, first compound 10 µM
[19] = second compound 3.16 µM, first compound 0.0316 µM
[20] = second compound 3.16 µM, first compound 0.1 µM
[21] = second compound 3.16 µM, first compound 0.316 µM
[22] = second compound 3.16 µM, first compound 1 µM
[23] = second compound 3.16 µM, first compound 3.16 µM
[24] = second compound 3.16 µM, first compound 10 µM
[25] = second compound 10 µM, first compound 0.0316 µM
[26] = second compound 10 µM, first compound 0.1 µM
[27] = second compound 10 µM, first compound 0.316 µM
[28] = second compound 10 µM, first compound 1 µM
[29] = second compound 10 µM, first compound 3.16 µM
[30] = second compound 10 µM, first compound 10 µM
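Further: viability read after seven days of drug exposure.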

Row | Compound | pIC50 (second compound 0.1 µM) | pIC50 (second compound 0.316 µM) | pIC50 (second compound 1 µM) | pIC50 (second compound 3.16 µM) | pIC50 (second compound 10 µM) | viability, T/C [1] [%] | viability, T/C [2] [%] | viability, T/C [3] [%] | viability, T/C [4] [%] | viability, T/C [5] [%] | viability, T/C [7] [%] | viability, T/C [8] [%] | viability, T/C [9] [%] | viability, T/C [10] [%] | viability, T/C [11] [%] | viability, T/C [13] [%] | viability, T/C [14] [%] | viability, T/C [15] [%] | viability, T/C [16] [%] | viability, T/C [17] [%] | also measured
1 | COc1cc(Nc2ncc3c(n2)-c2ccc(Cl)cc2C(c2c(F)cccc2OC)=NC3)ccc1C(=O)O + CC1OCC2(CCN(c3cnc(Sc4ccnc(N)c4Cl)c(N)n3)CC2)C1N | > 7.50 | > 7.50 | > 7.50 | > 7.50 | > 7.50 | 44.6 | 45.2 | 39.7 | 38.8 | 37.2 | 41 | 39.3 | 45.5 | 34.4 | 36.4 | 39.5 | 35.1 | 38.1 | 36 | 34.5 | viability, T/C [6]: 37.4%; viability, T/C [12]: 35.8%; viability, T/C [18]: 30.5%; viability, T/C [19]: 38.4%; viability, T/C [20]: 31.1%; viability, T/C [21]: 30.8%; viability, T/C [22]: 30%; viability, T/C [23]: 28.2%; viability, T/C [24]: 33.6%; viability, T/C [25]: 37.8%; viability, T/C [26]: 37.7%; viability, T/C [27]: 36%; viability, T/C [28]: 37.1%; viability, T/C [29]: 27.1%; viability, T/C [30]: 31.1%
2 | COc1cc2nccc(Oc3ccc(NC(=O)C4(C(=O)Nc5ccc(F)cc5)CC4)cc3)c2cc1OC + COc1cc2nc(C)nc(NC(C)c3cc(N)cc(C(F)(F)F)c3)c2cc1OC1CCOC1 | 5.13 | 5.12 | 5.25 | 5.49 | 5.83 | 93.7 | 99.6 | 88.6 | 95.1 | 85.6 | 99.7 | 98.1 | 88.6 | 88.9 | 83.6 | 89 | 96.1 | 96.6 | 90.1 | 72 | viability, T/C [6]: 37.4%; viability, T/C [12]: 39.5%; viability, T/C [18]: 27.5%; viability, T/C [19]: 100%; viability, T/C [20]: 96.8%; viability, T/C [21]: 101%; viability, T/C [22]: 105%; viability, T/C [23]: 51.2%; viability, T/C [24]: 6.41%; viability, T/C [25]: 93.4%; viability, T/C [26]: 73.2%; viability, T/C [27]: 67%; viability, T/C [28]: 74.8%; viability, T/C [29]: 0.78%; viability, T/C [30]: 0.24%
3 | CC(=O)OC12COC1CC(O)C1(C)C(=O)C(O)C3=C(C)C(OC(=O)C(O)C(NC(=O)OC(C)(C)C)c4ccccc4)CC(O)(C(OC(=O)c4ccccc4)C21)C3(C)C (stereo not given) + C=CC(=O)N1CCN(c2nc(=O)n(-c3c(C)ccnc3C(C)C)c3nc(-c4c(O)cccc4F)c(F)cc23)C(C)C1 | > 8.00 | > 8.00 | > 8.00 | > 8.00 | > 8.00 | 15.5 | 15.1 | 15.4 | 15.7 | 17.4 | 13.3 | 11.5 | 12.6 | 13.6 | 20 | 10.9 | 10.9 | 12 | 11.9 | 12.1 | viability, T/C (second compound 0.1 µM, first compound 0.01 µM): 21.5%; viability, T/C (second compound 0.316 µM, first compound 0.01 µM): 22.5%; viability, T/C (second compound 1 µM, first compound 0.01 µM): 15%; viability, T/C (second compound 3.16 µM, first compound 0.01 µM): 17.5%; viability, T/C [19]: 10.9%; viability, T/C [20]: 6.69%; viability, T/C [21]: 7.49%; viability, T/C [22]: 11.8%; viability, T/C [23]: 16.2%; viability, T/C (second compound 10 µM, first compound 0.01 µM): 20.7%; viability, T/C [25]: 13.1%; viability, T/C [26]: 9.39%; viability, T/C [27]: 9.36%; viability, T/C [28]: 12.5%; viability, T/C [29]: 12.7%
